# Reference: patent US20070179121A1, “Method of treating pediatric patients with corticosteroids” (priority 2006, published 2007)
# Test system: HPA-axis
# Test: HPA-axis suppression: serum cortisol before and 30 minutes after intravenous cosyntropin stimulation, pediatric atopic dermatitis patients
# Assay type: in vivo, human (pediatric patients)
# Conditions: for Not suppressed: percent in brackets
# Experimental: At the baseline visit, physical examinations were performed, including measurements of height, weight, and vital signs, and female subjects of childbearing potential underwent a urine pregnancy test (UPT). Patients with any significant disease of the hepatic, renal, endocrine, musculoskeletal, or nervous system were excluded. At Screening/Baseline, each qualified patient was assessed for a normally functioning HPA axis. Male or female patients with clinically diagnosed atopic dermatitis, involving ≧20% of the total body surface area (BSA), were randomized to receive either qd (once a day) or bid (twice a day) treatment in 4 sequential cohorts. The “rule of nines” method was used in calculating affected BSA.
# Enrollment in the 4 cohorts was as follows: Cohort 1-33 patients, 12 to <18 years of age; Cohort 2-32 patients, 6 to <12 years of age; Cohort 3-30 patients, 2 to […] Cohort 4-31 infants, 3 months to <2 years of age.
# Enrollment into each cohort began only after evaluation of the preceding cohort in order to minimize the risk of systemic toxicity to the study subjects. Four observations of HPA-axis suppression in a single treatment group per cohort were considered as evidence of a clinically significant risk.
# Patients who met the inclusion/exclusion criteria were randomized to receive topical fluocinonide either qd or bid. Patients/guardians were instructed to apply a thin layer of the study product to all treatable areas once or twice daily for 14 days. If the areas to be treated were hairy, patients/guardians were instructed to part the hair to allow direct contact between the study product and the lesion. Patients/guardians were also instructed not to apply study product to lesions of the face, groin, perianal area, and axillae. At the end of Weeks 1, 2, and 4, patients returned to the study site in order for the investigator to perform designated evaluations, review treatment compliance and concomitant therapy, and to collect information regarding adverse events.
# The potential of fluocinonide to suppress the HPA-axis was assessed by determining the rate of incidence of suppression, when suppression was defined as a serum cortisol level ≦18 μg/dL, 30 minutes after intravenous cosyntropin stimulation. For a subject to be evaluable for HPA-axis suppression, the subject must have received at least 2 full weeks of fluocinonide treatment prior to the cosyntropin challenge. Pre-and post-cosyntropin-stimulation blood samples were obtained between 7:30 and 8:30 AM to account for diurnal variation in cortisol levels, at the Baseline and Week 2 visits, as directed in the Cortrosyn® package insert. Cortrosyn® is a drug that stimulates the adrenal gland. […] The dose and administration of cosyntropin followed the labeling of the product. Specifically, the dose for subjects 3 to 17 years of age was 0.25 mg, and the dose for subjects 3 months to 2 years old was 0.125 mg. At the end of the 14-day treatment period, any subject with a post-stimulation cortisol level ≦18 μg/dL was re-tested at Week 4 and once every 4 weeks thereafter until the post-stimulation levels were within normal limits.
# Mean post-stimulation cortisol levels measured at Baseline and at Week 2 were compared using a paired t test.
# [1] = End of Week 2, Cohort 1 (12-<18 years), bid
# [2] = End of Week 2, Cohort 1 (12-<18 years), qd
# [3] = End of Week 2, Cohort 2 (6-<12 years), bid
# [4] = End of Week 2, Cohort 2 (6-<12 years), qd
# [5] = End of Week 2, Cohort 3 (2-<6 years), bid
# [6] = End of Week 2, Cohort 3 (2-<6 years), qd
# [7] = End of Week 2, Cohort 4 (3 months to <2 year), bid
# [8] = End of Week 2, Cohort 4 (3 months to <2 year), qd
# [9] = Screening, Cohort 1 (12-<18 years), bid
# [10] = Screening, Cohort 1 (12-<18 years), qd
# [11] = Screening, Cohort 2 (6-<12 years), bid
# [12] = Screening, Cohort 2 (6-<12 years), qd
# [13] = Screening, Cohort 3 (2-<6 years), bid
# [14] = Screening, Cohort 3 (2-<6 years), qd
# [15] = Screening, Cohort 4 (3 months to <2 year), bid
# [16] = Screening, Cohort 4 (3 months to <2 year), qd
# [17] = patient of Cohort 3 bid, Week 2 (samples suspected reversed)
structure (smiles),measurement,setting,value
"CC(=O)OCC(=O)[C@@]12OC(C)(C)O[C@@H]1C[C@H]1[C@@H]3C[C@H](F)C4=CC(=O)C=C[C@]4(C)[C@@]3(F)[C@@H](O)C[C@@]12C [Fluocinonide, pregna-1,4-diene-3,20-dione,21-(acetyloxy)-6,9-difluoro-11-hydroxy-16, 17-[(1-methylethylidene)bis(oxy)]-,(6α., 11β,16α)-]",Patients who met the criterion for HPA-axis suppression,"Cohort 1, bid, 1 of 15",6.7%
same,Patients who met the criterion for HPA-axis suppression,"Cohort 2, bid, 2 of 16",12.5%
same,Patients who met the criterion for HPA-axis suppression,"Cohort 3, bid, Week 2, 1 of 15, samples suspected reversed, not counted as suppression",6.7%
same,Subjects who experienced HPA-axis suppression,Cohort 4,None
same,"Cortisol increase in levels, Mean ± SD",[1],8.6 ± 4.7 µg/dL
same,"Cortisol increase in levels, Range",[1],1.2 to 17.0 µg/dL
same,"Cortisol pre-stimulation level, Mean ± SD",[1],17.2 ± 8.3 µg/dL
same,"Cortisol pre-stimulation level, Range",[1],7.1 to 34.2 µg/dL
same,Not suppressed,[1],14 (93.3) N
same,"Cortisol increase in levels, Mean ± SD",[2],9.3 ± 5.1 µg/dL
same,"Cortisol increase in levels, Range",[2],3.5 to 22.2 µg/dL
same,"Cortisol pre-stimulation level, Mean ± SD",[2],17.6 ± 7.6 µg/dL
same,"Cortisol pre-stimulation level, Range",[2],1.2 to 32.9 µg/dL
same,Not suppressed,[2],15 (100) N
same,"Cortisol increase in levels, Mean ± SD",[3],11.5 ± 5.2 µg/dL
same,"Cortisol increase in levels, Range",[3],-3.5 to 20.3 µg/dL
same,"Cortisol pre-stimulation level, Mean ± SD",[3],12.3 ± 4.9 µg/dL
same,Not suppressed,[3],14 (87.5) N
same,"Cortisol increase in levels, Mean ± SD",[4],11.0 ± 4.8 µg/dL
same,"Cortisol increase in levels, Range",[4],-2.3 to 17.8 µg/dL
same,"Cortisol pre-stimulation level, Mean ± SD",[4],13.7 ± 5.6 µg/dL
same,"Cortisol pre-stimulation level, Range",[4],6.9 to 29.3 µg/dL
same,"Cortisol post-stimulation level, Mean ± SD","End of Week 2, Cohort 2 (6-<12 years), qd, P = 0.015 vs screening",24.7 ± 3.0 µg/dL
same,"Cortisol post-stimulation level, Mean ± SD","End of Week 2, Cohort 2 (6-<12 years), qd, P = 0.015 vs screening, listed as fluocinonide",24.7 µg/dL
same,Not suppressed,[4],15 (100) N
same,"Cortisol increase in levels, Mean ± SD",[5],11.0 ± 10.4 µg/dL
same,"Cortisol increase in levels, Range",[5],-19 to 29.1 µg/dL
same,"Cortisol pre-stimulation level, Mean ± SD",[5],15.0 ± 5.9 µg/dL
same,Not suppressed,[5],15 (100) N
same,"Cortisol increase in levels, Mean ± SD",[6],12.7 ± 4.9 µg/dL
same,"Cortisol increase in levels, Range",[6],3.1 to 22.0 µg/dL
same,"Cortisol pre-stimulation level, Mean ± SD",[6],15.4 ± 7.0 µg/dL
same,Not suppressed,[6],15 (100) N
same,"Cortisol increase in levels, Mean ± SD",[7],16.5 ± 6.6 µg/dL
same,"Cortisol increase in levels, Range",[7],7.0 to 29.7 µg/dL
same,"Cortisol pre-stimulation level, Mean ± SD",[7],13.0 ± 4.6 µg/dL
same,Not suppressed,[7],15 (100) N
same,"Cortisol increase in levels, Mean ± SD",[8],19.9 ± 7.1 µg/dL
same,"Cortisol increase in levels, Range",[8],6.4 to 29.9 µg/dL
same,"Cortisol pre-stimulation level, Mean ± SD",[8],10.4 ± 3.2 µg/dL
same,Not suppressed,[8],15 (100) N
same,"Cortisol increase in levels, Mean ± SD",[9],11.1 ± 3.7 µg/dL
same,"Cortisol increase in levels, Range",[9],4.3 to 17.4 µg/dL
same,"Cortisol post-stimulation level, Mean ± SD",[9],26.8 ± 8.0 µg/dL
same,"Cortisol post-stimulation level, Range",[9],18.3 to 50.4 µg/dL
same,"Cortisol pre-stimulation level, Mean ± SD",[9],15.7 ± 10.3 µg/dL
same,"Cortisol pre-stimulation level, Range",[9],0.9 to 42.7 µg/dL
same,"Cortisol increase in levels, Mean ± SD",[10],9.3 ± 5.2 µg/dL
same,"Cortisol increase in levels, Range",[10],-1.2 to 22.1 µg/dL
same,"Cortisol post-stimulation level, Mean ± SD",[10],26.4 ± 3.7 µg/dL
same,"Cortisol post-stimulation level, Range",[10],18.2 to 31.3 µg/dL
same,"Cortisol pre-stimulation level, Mean ± SD",[10],17.2 ± 6.6 µg/dL
same,"Cortisol pre-stimulation level, Range",[10],2.0 to 26.1 µg/dL
same,"Cortisol increase in levels, Mean ± SD",[11],12.3 ± 3.7 µg/dL
same,"Cortisol increase in levels, Range",[11],3.8 to 17.8 µg/dL
same,"Cortisol post-stimulation level, Mean ± SD",[11],24.9 ± 3.9 µg/dL
same,"Cortisol post-stimulation level, Range",[11],19.4 to 32.1 µg/dL
same,"Cortisol pre-stimulation level, Mean ± SD",[11],12.5 ± 4.5 µg/dL
same,"Cortisol pre-stimulation level, Range",[11],6.4 ± 22.2 µg/dL
same,"Cortisol increase in levels, Mean ± SD",[12],14.0 ± 6.1 µg/dL
same,"Cortisol increase in levels, Range",[12],3.0 to 22.6 µg/dL
same,"Cortisol post-stimulation level, Mean ± SD",[12],28.0 ± 4.3 µg/dL
same,"Cortisol post-stimulation level, Range",[12],20.9 to 36.2 µg/dL
same,"Cortisol pre-stimulation level, Mean ± SD",[12],14.0 ± 5.0 µg/dL
same,"Cortisol pre-stimulation level, Range",[12],6.6 to 25.1 µg/dL
same,"Cortisol post-stimulation level, Mean ± SD","Screening, Cohort 2 (6-<12 years), qd, listed as fluocinonide",28.0 µg/dL
same,"Cortisol increase in levels, Mean ± SD",[13],15.6 ± 7.0 µg/dL
same,"Cortisol increase in levels, Range",[13],1.8 to 30.0 µg/dL
same,"Cortisol post-stimulation level, Mean ± SD",[13],29.9 ± 6.1 µg/dL
same,"Cortisol post-stimulation level, Range",[13],20.1 to 40.0 µg/dL
same,"Cortisol pre-stimulation level, Mean ± SD",[13],14.4 ± 5.6 µg/dL
same,"Cortisol pre-stimulation level, Range",[13],6.1 to 23.4 µg/dL
same,"Cortisol increase in levels, Mean ± SD",[14],17.4 ± 3.1 µg/dL
same,"Cortisol increase in levels, Range",[14],11.2 to 23.0 µg/dL
same,"Cortisol post-stimulation level, Mean ± SD",[14],29.0 ± 3.8 µg/dL
same,"Cortisol post-stimulation level, Range",[14],22.8 to 37.0 µg/dL
same,"Cortisol pre-stimulation level, Mean ± SD",[14],11.6 ± 3.6 µg/dL
same,"Cortisol pre-stimulation level, Range",[14],7.3 to 19.8 µg/dL
same,"Cortisol increase in levels, Mean ± SD",[15],17.9 ± 4.7 µg/dL
same,"Cortisol increase in levels, Range",[15],11.4 to 25.0 µg/dL
same,"Cortisol post-stimulation level, Mean ± SD",[15],29.2 ± 6.1 µg/dL
same,"Cortisol post-stimulation level, Range",[15],20.5 to 38.8 µg/dL
same,"Cortisol pre-stimulation level, Mean ± SD",[15],11.3 ± 4.9 µg/dL
same,"Cortisol pre-stimulation level, Range",[15],6.0 to 20.8 µg/dL
same,"Cortisol increase in levels, Mean ± SD",[16],16.5 ± 4.7 µg/dL
same,"Cortisol increase in levels, Range",[16],6.1 to 23.0 µg/dL
same,"Cortisol post-stimulation level, Mean ± SD",[16],28.3 ± 5.1 µg/dL
same,"Cortisol post-stimulation level, Range",[16],20.7 to 36.2 µg/dL
same,"Cortisol pre-stimulation level, Mean ± SD",[16],11.8 ± 4.3 µg/dL
same,"Cortisol pre-stimulation level, Range",[16],4.7 to 19.6 µg/dL
same,Suppression of the HPA-axis,"administered once daily, patients 3 months to <18 years of age",does not result in suppression of the HPA-axis
same,HPA-axis suppression,"administered topically once or twice daily, pediatric patients with atopic dermatitis",does not result in any significant level of HPA-axis suppression
same,Suppression of the HPA-axis,administered twice daily,low incidence of suppression of the HPA-axis
same,"Post-stimulation serum cortisol level, single patient","first suppressed patient of Cohort 2 bid, Screening",32.1 µg/dL
same,"Post-stimulation serum cortisol level, single patient","first suppressed patient of Cohort 2 bid, Week 2",17.2 µg/dL
same,"Post-stimulation serum cortisol level, single patient","first suppressed patient of Cohort 2 bid, Week 4 (2 weeks post-treatment)",28.7 µg/dL
same,"Post-stimulation serum cortisol level, single patient","patient of Cohort 3 bid, Screening",40.0 µg/dL
same,"Post-stimulation serum cortisol level, single patient",[17],9.1 µg/dL
same,"Pre-stimulation serum cortisol level, single patient",[17],28.0 µg/dL
same,"Post-stimulation serum cortisol level, single patient","patient of Cohort 3 bid, Week 4",30.3 µg/dL
same,"Post-stimulation serum cortisol level, single patient","second suppressed patient of Cohort 2 bid, 8 days after the end of treatment",22.4 µg/dL
same,"Post-stimulation serum cortisol level, single patient","second suppressed patient of Cohort 2 bid, Screening",20.5 µg/dL
same,"Post-stimulation serum cortisol level, single patient","second suppressed patient of Cohort 2 bid, Week 2",16.7 µg/dL
same,"Post-stimulation serum cortisol level, single patient","suppressed patient of Cohort 1 bid, Week 2",17.6 µg/dL
same,"Post-stimulation serum cortisol level, single patient","suppressed patient of Cohort 1 bid, Week 4 (2 weeks post-treatment)",18.9 µg/dL
